Common to all, as to format: cell-based
In test [1] the target is T1, human prostanoid TP receptor (Homo sapiens, UniProt P21731).
T1 construct: expressed in transfected cells
T1 sequence (P21731 1-343): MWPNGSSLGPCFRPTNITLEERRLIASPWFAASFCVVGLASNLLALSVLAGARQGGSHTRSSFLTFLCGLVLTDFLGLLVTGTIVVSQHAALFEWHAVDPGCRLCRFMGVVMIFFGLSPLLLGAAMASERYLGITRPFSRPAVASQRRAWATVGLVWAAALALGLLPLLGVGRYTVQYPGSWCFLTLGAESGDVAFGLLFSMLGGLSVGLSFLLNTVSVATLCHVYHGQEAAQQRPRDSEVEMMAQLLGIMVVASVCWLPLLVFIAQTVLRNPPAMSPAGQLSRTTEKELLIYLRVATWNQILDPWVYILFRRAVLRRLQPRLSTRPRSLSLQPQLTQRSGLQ
Kind of test: FLIPR Ca2+ signaling antagonist assay, TP receptor stable cell line. The note with it: HEK-293 EBNA stable cell line; standard agonist U-46619; NA = inactive (no antagonism or Kb 10,000 nM); PAg, Ag not defined. The method in brief:
(§1)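 Peak Fluo-4 fluorescence (ex 470–495, em 515–575 nm) was read for 3.5 min on FLIPR after agonist injection and expressed relative to 10^−6 M standard agonist. Cells were HEK-293 EBNA transfectants. Test compound was added 4.5 min beforehand at 0.1–30 μM, or 0.067–1 μM for TP.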

The target of test [2] is T2, human prostanoid EP4 receptor (Homo sapiens, UniProt P35408).
T2 construct: expressed in transfected cells
Kind of test: FLIPR Ca2+ signaling antagonist assay, EP4 receptor stable cell line. The note with it: HEK-293 EBNA stable cell line; standard agonist PGE2; NA = inactive (no antagonism or Kb 10,000 nM); PAg, Ag not defined. The method in brief:
as §1

The target in test [3] is T3, human prostanoid EP3 receptor (Homo sapiens, UniProt P43115).
T3 construct: expressed in transfected cells
T3 sequence (P43115 1-390): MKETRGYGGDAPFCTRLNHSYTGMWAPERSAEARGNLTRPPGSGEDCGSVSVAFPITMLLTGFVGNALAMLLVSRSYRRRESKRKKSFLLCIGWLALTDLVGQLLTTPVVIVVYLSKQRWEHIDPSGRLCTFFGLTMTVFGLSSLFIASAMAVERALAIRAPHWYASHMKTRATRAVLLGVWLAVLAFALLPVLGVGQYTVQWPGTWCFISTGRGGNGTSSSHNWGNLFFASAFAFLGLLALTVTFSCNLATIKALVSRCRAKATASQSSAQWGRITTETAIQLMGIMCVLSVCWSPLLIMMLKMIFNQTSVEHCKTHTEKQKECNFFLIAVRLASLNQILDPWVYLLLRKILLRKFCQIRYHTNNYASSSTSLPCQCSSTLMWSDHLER
Kind of test: FLIPR Ca2+ signaling antagonist assay, EP3 receptor stable cell line. The note with it: HEK-293 EBNA stable cell line; standard agonist PGE2; NA = inactive (no antagonism or Kb 10,000 nM); PAg, Ag not defined. As to the method:
The above compounds were tested for PG antagonist activity as follows using human recombinant prostanoid receptor (DP1, EP1-4, FP, IP and TP) stable cell lines:
In order to measure the response of Gs and Gi coupled prostanoid receptors as a Ca^2+ signal, chimeric G protein cDNAs were used. Stable cell lines over-expressing human prostanoid DP1, EP1-4, FP, IP, and TP receptors were established as follows:
Briefly, human prostanoid DP1, EP2, and EP4 receptor cDNAs were co-transfected with chimeric Gqs cDNA containing a haemagglutanin (HA) epitope; human prostanoid EP3 receptors were co-transfected with chimeric Gqi-HA; human EP1, FP, IP, and TP receptor cDNAs were expressed with no exogenous G-proteins. Gqs and Gqi chimeric cDNAs (Molecular Devices, Sunnyvale, Calif., U.S.A.), as well as cDNAs of prostanoid receptors, were cloned into a pCEP4 vector with a hygromycin B selection marker. Transfection into HEK-293 EBNA (Epstein-Barr virus nuclear antigen) cells was achieved by the FuGENE 6 transfection Reagent (Roche Applied Science, Indianapolis, Ind., USA). Stable transfectants were selected according to hygromycin resistance. Because Gqs and Gqi contained an HA epitope, G-protein expression was detected by Western blotting analysis using anti-mouse HA monoclonal antibody and horseradish peroxidase (HRP)-conjugated secondary antibody, while functional expression of prostanoid receptors was detected by FLIPR screening (Matias et al., 2004). These stable cell lines were validated using previously published antagonists at 10 μM against serial dilutions of standard agonists by FLIPR functional assays for Ca^2+ Signaling (as described below).
Ca^2+ signaling studies were performed using a FLIPR TETRA system (Molecular Devices, Sunnyvale, Calif., USA) in the 384-format. This is a high-throughput instrument for cell-based assays to monitor Ca^2+ signaling associated with GPCRs and ion channels. Cells were seeded at a density of 5×10^4 cells/well in BioCoat poly-D-lysine coated, black wall, clear bottom 384-well plates (BD Biosciences, Franklin lakes, NJ, USA) and allowed to attach overnight in an incubator at 37° C. The cells were then washed twice with HBSS-HEPES buffer (Hanks' balanced salt solution without bicarbonate and phenol red, 20 mM HEPES, pH 7.4) using an ELx405 Select CW Microplate Washer (BioTek, Winooski, Vt., USA). After 60 min of dye-loading in the dark using the Ca^2+-sensitive dye Fluo-4AM (Invitrogen, Carlsbad, Calif., USA), at a final concentration of 2×10^−6M, the plates were washed 4 times with HBSS-HEPES buffer to remove excess dye and leaving 50 μl of buffer in each well. The plates were then placed in the FLIPR TETRA instrument and allowed to equilibrate at 37° C. AGN-211377 was added in a 25 μl volume to each well to give final concentrations of 0.1 μM, 0.3 μM, 1 μM, 3 μM, 10 μM, and 30 μM; or 0.067 μM, 0.1 μM, 0.2 μM, 0.3 μM, 0.67 μM, and 1 μM for cells over-expressing TP receptors. After 4.5 minutes, a 7-point serial dilution of the standard agonist for the corresponding receptor, in a 25 μl volume was injected at the final concentrations from 10^−11M to 10^−5M in 10-fold serial dilution increments for cells expressing human recombinant DP1, EP1, EP2, EP3, EP4, FP, and IP receptors. The dose range for the standard agonist for human recombinant TP receptors was from 10^−12 M to 10^−6 M. HBSS-HEPES buffer was used as the negative control for the standard agonists. Cells were excited with LED (light emitting diode) excitation at 470-495 nm and emission was measured through an emission filter at 515-575 nm. Assay plates were read for 3.5 minutes using the FLIPR^TETRA. The peak increase in fluorescence intensity was recorded for each well. On each plate, negative controls, dose response of positive controls, and co-treatments of antagonist-agonist for each dose were in triplicates.
Standard agonists were as follows: DP=BW 245C, EP1-EP4=PGE2, FP=17-phenyl-PGF2α, IP=Cicaprost, and TP=U-46619. […]

In test [4] the target is T4, human prostanoid FP receptor (Homo sapiens, UniProt P43088).
T4 construct: expressed in transfected cells
Kind of test: FLIPR Ca2+ signaling antagonist assay, FP receptor stable cell line. The note with it: HEK-293 EBNA stable cell line; standard agonist 17-phenyl-PGF2α; NA = inactive (no antagonism or Kb 10,000 nM); PAg, Ag not defined. The method in brief: as §1

T4 sequence (P43088 whole entry): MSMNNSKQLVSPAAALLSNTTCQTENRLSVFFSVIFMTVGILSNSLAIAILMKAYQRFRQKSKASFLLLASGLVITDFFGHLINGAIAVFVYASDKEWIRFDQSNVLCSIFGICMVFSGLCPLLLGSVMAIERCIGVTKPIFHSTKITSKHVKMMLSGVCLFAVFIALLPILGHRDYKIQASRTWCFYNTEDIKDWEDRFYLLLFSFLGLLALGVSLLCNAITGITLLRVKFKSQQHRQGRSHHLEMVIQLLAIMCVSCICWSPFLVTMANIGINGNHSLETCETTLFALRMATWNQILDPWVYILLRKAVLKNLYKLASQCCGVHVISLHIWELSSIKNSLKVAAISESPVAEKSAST
T2 sequence (P35408 whole entry): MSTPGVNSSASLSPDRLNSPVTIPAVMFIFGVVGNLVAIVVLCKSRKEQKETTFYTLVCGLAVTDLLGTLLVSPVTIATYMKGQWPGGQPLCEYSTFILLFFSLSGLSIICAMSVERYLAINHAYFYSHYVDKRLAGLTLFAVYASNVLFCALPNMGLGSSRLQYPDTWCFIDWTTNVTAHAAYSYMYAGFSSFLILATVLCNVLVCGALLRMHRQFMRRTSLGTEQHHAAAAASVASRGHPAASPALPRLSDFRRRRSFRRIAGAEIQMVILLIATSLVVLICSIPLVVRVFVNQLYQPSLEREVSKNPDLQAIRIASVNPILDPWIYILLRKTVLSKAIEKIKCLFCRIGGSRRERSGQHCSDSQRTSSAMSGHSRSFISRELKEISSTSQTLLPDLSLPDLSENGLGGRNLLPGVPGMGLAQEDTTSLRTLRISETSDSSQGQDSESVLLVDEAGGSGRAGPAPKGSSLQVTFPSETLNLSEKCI

With `CCC(CC)COc1ccc(Br)cc1Cn1nc(CCC(=O)O)cc1C(F)(F)F` [Example 58, 3-{1-[5-Bromo-2-(2-ethyl-butoxy)-benzyl]-5-trifluororomethyl-1H-pyrazol-3-yl}-propionic acid], the Kb in test [1] is 150 nM. Also, the “EP4 (FLIPR) Kb” value in test [2] is given as “PAg”. Further, the “EP3 (FLIPR) Kb” value in test [3] was “PAg”. For the same compound, in test [4], the “FP (FLIPR) Kb” value was “PAg”.
Turning to `Cc1cc(CCC(=O)NS(=O)(=O)C(F)(F)F)nn1Cc1cc(Cl)ccc1OCc1ccc(Cl)cc1Cl` [Example 27, N-(3-[1-(5-Chloro-2-(2,4-dichlorobenzyloxy)benzyl)-5-methyl-1H-pyrazol-3-yl]-propionyl)C,C,C-trifluoromethanesulfonamide], the “TP (FLIPR) Kb” value in test [1] was “PAg”. Also, the Kb was 150 nM in test [2], 500 nM in test [3] and 90 nM in test [4].
In the case of `Cc1cc(CCC(=O)O)nn1Cc1cc(Cl)ccc1OCc1ccc(Cl)cc1Cl` [Example 26, 3-[1-(5-Chloro-2-(2,4-dichlorobenzyloxy)benzyl)-5-methyl-1H-pyrazol-3-yl]-propionic acid], the “TP (FLIPR) Kb” value in test [1] is listed as “PAg”. The Kb in test [2] was 8400 nM; in test [3], 7100 nM; in test [4], 140 nM.
For the compound `Cc1cc(CCC(=O)O)nn1Cc1cc(Cl)ccc1C#CC1CCCC1` [Example 73, 3-{1-[5-Chloro-2-cyclopentylethynyl-benzyl]-5-methyl-1H-pyrazol-3-yl}-propionic acid], the Kb in test [1] is 2 nM; in test [2] it was 600 nM; in test [3] it was 2700 nM; in test [4] it was 50 nM.
The like results for `Cc1cc(CCC(=O)O)nn1Cc1cc(OC(F)(F)F)ccc1OCC1CCCC1` [Example 50, 3-[1-(2-Cyclopentylmethoxy-5-trifluoromethoxy-benzyl)-5-methyl-1H-pyrazol-3-yl]-propionic acid] were, in that order, 20 nM, 200 nM, 7100 nM and 90 nM.
The corresponding values for `Cc1cc(CCC(=O)O)nn1Cc1cc(Cl)ccc1OCCCC(C)C` [Example 40, 3-[1-(5-Chloro-2-(4-methylpentyloxy)benzyl)-5-methyl-1H-pyrazol-3-yl]-propionic acid] are 40 nM, 1700 nM, 5700 nM and 360 nM.
The like results for `Cc1cc(CC(C)(C)C(=O)O)nn1Cc1cc(Br)ccc1OCC1CCCC1` [Example 71, 3-{1-[5-Bromo-2-(2-cyclopentylmethoxy)-benzyl]-5-methyl-1H-pyrazol-3-yl}-2,2-dimethyl-propionic acid] were, in that order, 8 nM, 80 nM, 3200 nM and 200 nM.
For the compound `CCC(CC)COc1ccc(Br)cc1Cn1nc(CCC(=O)O)cc1C(C)C` [Example 55, 3-{1-[5-Bromo-2-(2-ethyl-butoxy)-benzyl]-5-isopropyl-1H-pyrazol-3-yl}-propionic acid], the Kb in test [1] amounted to 250 nM; in test [2], 80 nM; in test [3] it was 3700 nM; in test [4], 110 nM.
The like results for `Cc1cc(CCC(=O)NS(=O)(=O)C(F)(F)F)nn1Cc1cc(Br)ccc1OCC(C)C` [Example 19, N-(3-{1-[5-Bromo-2-isobutoxybenzyl]-5-methyl-1H-pyrazol-3-yl}-propionyl)-C,C,C-trifluoro-methanesulfonamide] were, in that order, 1 nM, 30 nM, 700 nM and 220 nM.
The corresponding values for `CCCc1cc(CCC(=O)O)nn1Cc1cc(Br)ccc1OCC(CC)CC` [Example 56, 3-{1-[5-Bromo-2-(2-ethyl-butoxy)-benzyl]-5-propyl-1H-pyrazol-3-yl}-propionic acid] are 70 nM, 3 nM, 2700 nM and 900 nM.
The like results for `Cc1cc(CCC(=O)NS(=O)(=O)C(F)(F)F)nn1Cc1cc(Cl)ccc1CCC1CCCC1` [Example 75] were, in that order, 12 nM, 1000 nM, 1600 nM and 1500 nM.
On to `CCCCC(CC)COc1ccc(Br)cc1Cn1nc(CCC(=O)O)cc1C` (centres unmarked) [Example 6, 3-[1-(5-Bromo-2-(2-ethyl-hexyloxy)-benzyl)-5-methyl-1H-pyrazol-3-yl]-propionic acid], for which the Kb came to 10 nM in test [1], 1100 nM in test [2], 8800 nM in test [3] and 400 nM in test [4].
The like results for `CCCC(C)COc1ccc(Br)cc1Cn1nc(CCC(=O)O)cc1C` (centres unmarked) [Example 8, 3-[1-(5-Bromo-2-(2-methyl-pentyloxy)-benzyl)-5-methyl-1H-pyrazol-3-yl]-propionic acid] were, in that order, 1 nM, 400 nM, 6400 nM and 90 nM.
In the case of `Cc1cc(CCC(=O)O)nn1Cc1cc(Br)ccc1OCC1(C(F)(F)F)CCC1` [Example 13, 3-[1-(5-Bromo-2-(1-trifluoromethylcyclobutylmethoxy)-benzyl)-5-methyl-1H-pyrazol-3-yl]-propionic acid], the Kb in test [1] is 10 nM; in test [2], 1000 nM; in test [3], 8300 nM; in test [4], 100 nM.

(Values after US9394284B2, “Compounds act at multiple prostaglandin receptors giving a general anti-inflammatory response” (Allergan, Inc., priority 2010, dated 2016).)
